These results are taken from ChEMBL document CHEMBL5465560, “Selectivity Literature for EUbOPEN Chemogenomic Library” (2024).

The target in experiment [1] is T1, Serine/threonine-protein kinase D1 (Homo sapiens) (UniProt Q15139).
T1 sequence (whole entry): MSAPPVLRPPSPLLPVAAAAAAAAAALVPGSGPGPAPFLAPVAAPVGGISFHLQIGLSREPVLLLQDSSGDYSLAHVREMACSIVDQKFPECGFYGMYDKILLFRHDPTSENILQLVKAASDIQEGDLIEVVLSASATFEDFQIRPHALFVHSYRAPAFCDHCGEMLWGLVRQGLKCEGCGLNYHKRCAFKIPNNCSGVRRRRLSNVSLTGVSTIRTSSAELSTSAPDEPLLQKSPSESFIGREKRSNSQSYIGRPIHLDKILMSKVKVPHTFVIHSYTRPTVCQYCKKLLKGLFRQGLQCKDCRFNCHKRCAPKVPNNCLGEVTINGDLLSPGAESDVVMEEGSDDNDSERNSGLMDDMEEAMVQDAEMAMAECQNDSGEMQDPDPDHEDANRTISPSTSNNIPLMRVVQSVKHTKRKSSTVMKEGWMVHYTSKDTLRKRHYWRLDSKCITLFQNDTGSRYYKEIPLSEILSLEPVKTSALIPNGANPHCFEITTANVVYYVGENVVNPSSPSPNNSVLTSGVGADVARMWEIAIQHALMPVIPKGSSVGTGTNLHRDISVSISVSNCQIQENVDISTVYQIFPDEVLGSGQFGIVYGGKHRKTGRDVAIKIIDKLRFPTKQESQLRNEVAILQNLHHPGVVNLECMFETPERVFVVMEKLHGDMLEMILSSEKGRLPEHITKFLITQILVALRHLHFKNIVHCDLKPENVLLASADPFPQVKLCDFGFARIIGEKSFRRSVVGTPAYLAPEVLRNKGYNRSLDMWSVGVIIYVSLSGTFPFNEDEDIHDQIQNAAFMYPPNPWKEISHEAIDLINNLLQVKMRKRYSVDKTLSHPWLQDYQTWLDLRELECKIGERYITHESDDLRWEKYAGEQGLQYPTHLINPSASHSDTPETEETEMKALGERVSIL
Conditions: at 10 µM.

The target in experiment [2] is Interferon-induced, double-stranded RNA-activated protein kinase (Homo sapiens) (UniProt P19525). The experiment is described as follows: Selectivity interaction (ActivX KiNativ screen (kinase selectivity in THP-1 cell lysates)) EUB0000639a EIF2AK2. To be noted: lysate, at 0.2 µM. The experiment is classed as subcellular.
Interferon-induced, double-stranded RNA-activated protein kinase (Homo sapiens), sequence (P19525 whole entry): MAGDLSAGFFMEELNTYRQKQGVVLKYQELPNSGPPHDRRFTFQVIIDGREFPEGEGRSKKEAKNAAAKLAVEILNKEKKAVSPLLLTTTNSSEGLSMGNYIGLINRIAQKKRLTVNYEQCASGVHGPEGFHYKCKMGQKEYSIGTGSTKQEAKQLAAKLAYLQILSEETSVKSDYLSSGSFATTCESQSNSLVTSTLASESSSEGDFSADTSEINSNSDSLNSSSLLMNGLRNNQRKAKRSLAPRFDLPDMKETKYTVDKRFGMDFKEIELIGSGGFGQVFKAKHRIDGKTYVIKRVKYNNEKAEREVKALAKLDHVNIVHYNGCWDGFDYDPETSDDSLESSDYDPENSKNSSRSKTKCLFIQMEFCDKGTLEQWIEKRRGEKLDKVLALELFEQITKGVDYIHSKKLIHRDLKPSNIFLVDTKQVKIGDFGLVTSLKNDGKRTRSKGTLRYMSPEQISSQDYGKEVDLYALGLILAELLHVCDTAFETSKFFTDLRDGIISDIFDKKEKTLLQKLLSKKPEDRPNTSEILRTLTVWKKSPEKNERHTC
The target in experiment [3] is Serine/threonine-protein kinase PLK1 (Homo sapiens, UniProt P53350). Put plainly: Selectivity interaction (ActivX KiNativ screen (kinase selectivity in THP-1 cell lysates)) EUB0000639a PLK1. To be noted: lysate, at 0.04 µM. It is filed as subcellular.
Serine/threonine-protein kinase PLK1, sequence (P53350 whole entry): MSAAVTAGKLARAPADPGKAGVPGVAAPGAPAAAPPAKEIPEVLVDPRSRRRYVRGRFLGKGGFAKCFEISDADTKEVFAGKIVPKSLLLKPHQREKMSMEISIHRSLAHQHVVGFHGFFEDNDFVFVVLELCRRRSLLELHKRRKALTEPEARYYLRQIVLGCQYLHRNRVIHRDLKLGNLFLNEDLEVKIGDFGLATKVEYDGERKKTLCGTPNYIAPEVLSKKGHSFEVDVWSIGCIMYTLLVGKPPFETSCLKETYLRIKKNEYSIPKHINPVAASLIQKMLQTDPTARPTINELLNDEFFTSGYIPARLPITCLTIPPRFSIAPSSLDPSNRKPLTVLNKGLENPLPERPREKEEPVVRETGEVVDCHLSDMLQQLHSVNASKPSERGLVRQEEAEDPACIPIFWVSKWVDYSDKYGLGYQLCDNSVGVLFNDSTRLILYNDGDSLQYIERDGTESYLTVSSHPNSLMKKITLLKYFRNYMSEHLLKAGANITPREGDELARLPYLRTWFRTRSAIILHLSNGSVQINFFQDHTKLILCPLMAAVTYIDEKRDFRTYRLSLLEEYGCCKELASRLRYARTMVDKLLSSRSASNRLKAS
Experiment [4] addresses Serine/threonine-protein kinase pim-2 (Homo sapiens, UniProt Q9P1W9). Put plainly: Selectivity interaction (KinomeScan (DiscoverX)) EUB0001049a PIM2. Conditions: at 1 µM.
For experiment [5], the target named is T2, Serine/threonine-protein kinase Nek11 (Homo sapiens) (UniProt Q8NG66).
T2 sequence (whole entry): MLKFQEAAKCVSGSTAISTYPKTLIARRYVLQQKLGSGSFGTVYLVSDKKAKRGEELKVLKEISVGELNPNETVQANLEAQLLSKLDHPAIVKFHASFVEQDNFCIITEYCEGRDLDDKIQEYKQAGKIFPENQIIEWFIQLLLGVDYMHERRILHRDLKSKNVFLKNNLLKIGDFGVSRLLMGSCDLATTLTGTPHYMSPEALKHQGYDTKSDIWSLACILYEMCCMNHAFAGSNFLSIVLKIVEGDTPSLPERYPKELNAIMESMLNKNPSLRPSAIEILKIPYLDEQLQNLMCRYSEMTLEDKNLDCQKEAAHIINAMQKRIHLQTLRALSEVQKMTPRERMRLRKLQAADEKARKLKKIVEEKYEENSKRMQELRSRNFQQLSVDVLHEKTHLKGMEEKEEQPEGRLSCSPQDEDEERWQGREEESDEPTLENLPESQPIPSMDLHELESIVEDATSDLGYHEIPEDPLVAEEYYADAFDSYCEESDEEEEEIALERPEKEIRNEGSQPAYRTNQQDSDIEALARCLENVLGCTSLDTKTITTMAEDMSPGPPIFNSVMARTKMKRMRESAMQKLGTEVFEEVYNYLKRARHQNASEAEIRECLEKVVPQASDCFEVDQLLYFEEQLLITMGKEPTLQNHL
Put plainly: Selectivity interaction (Upstate Kinase Profiler service (Millipore)) EUB0000056c NEK11. Conditions: at 1 µM.

Experiment [6] concerns the target T3, Receptor-interacting serine/threonine-protein kinase 4 (Homo sapiens) (UniProt P57078).
T3 sequence (whole entry): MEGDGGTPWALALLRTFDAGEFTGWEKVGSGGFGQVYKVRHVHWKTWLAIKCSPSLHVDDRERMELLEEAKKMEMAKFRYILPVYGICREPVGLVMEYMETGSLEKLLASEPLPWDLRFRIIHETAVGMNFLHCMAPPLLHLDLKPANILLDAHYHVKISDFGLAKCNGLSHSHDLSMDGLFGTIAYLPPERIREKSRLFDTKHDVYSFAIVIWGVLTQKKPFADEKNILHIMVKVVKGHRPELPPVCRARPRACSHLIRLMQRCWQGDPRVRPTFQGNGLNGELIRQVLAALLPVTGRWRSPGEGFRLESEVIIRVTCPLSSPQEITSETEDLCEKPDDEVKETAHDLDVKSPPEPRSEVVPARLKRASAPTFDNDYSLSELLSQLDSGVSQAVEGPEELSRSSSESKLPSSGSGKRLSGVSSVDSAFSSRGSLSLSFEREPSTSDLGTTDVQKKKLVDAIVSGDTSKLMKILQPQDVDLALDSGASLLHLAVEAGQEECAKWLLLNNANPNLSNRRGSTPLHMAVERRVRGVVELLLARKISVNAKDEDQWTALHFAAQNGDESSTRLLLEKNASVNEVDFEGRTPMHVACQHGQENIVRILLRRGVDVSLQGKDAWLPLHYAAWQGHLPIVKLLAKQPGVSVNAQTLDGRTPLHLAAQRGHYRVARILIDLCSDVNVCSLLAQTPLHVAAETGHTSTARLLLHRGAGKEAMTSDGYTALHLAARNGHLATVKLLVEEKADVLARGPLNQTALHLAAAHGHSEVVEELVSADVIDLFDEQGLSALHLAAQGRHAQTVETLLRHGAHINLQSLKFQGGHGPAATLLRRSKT
Put plainly: Selectivity interaction (KinomeScan (DiscoverX)) EUB0000092b RIPK4. To be noted: at 10 µM.

In experiment [7] the target is Receptor-interacting serine/threonine-protein kinase 2 (Homo sapiens, UniProt O43353). The experiment is described as follows: Selectivity interaction (NanoBRET assay (HEK293T cells)) EUB0000229b RIPK2. The experiment is classed as cell-based, HEK-293T.
Receptor-interacting serine/threonine-protein kinase 2, sequence (O43353 whole entry): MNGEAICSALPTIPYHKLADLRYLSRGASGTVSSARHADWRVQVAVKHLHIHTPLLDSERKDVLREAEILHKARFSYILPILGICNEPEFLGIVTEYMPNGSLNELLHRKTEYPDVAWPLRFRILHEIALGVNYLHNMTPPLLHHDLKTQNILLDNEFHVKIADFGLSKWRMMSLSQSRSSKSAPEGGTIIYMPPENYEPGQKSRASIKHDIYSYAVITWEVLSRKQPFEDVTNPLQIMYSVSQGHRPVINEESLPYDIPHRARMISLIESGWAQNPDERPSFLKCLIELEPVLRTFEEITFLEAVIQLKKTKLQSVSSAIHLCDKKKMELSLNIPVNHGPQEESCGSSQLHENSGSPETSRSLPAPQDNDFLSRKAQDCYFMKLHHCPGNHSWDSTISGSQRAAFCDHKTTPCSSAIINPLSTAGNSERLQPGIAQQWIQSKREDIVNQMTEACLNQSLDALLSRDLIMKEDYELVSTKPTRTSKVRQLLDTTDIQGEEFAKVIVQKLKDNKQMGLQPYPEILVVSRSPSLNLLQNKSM

Where only a bound is given, the exact number is not on record here.

Serine/threonine-protein kinase pim-2, sequence (Q9P1W9 whole entry, looked up): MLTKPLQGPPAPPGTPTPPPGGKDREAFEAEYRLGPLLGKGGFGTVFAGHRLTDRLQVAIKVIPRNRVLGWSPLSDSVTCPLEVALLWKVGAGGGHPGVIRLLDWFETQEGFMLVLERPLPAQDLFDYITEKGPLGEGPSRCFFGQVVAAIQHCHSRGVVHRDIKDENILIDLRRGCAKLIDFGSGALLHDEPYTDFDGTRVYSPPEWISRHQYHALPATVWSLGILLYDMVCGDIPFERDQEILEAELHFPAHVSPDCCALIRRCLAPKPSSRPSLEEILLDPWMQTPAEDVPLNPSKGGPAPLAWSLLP

On to `Cc1cc([C@@H](C)Nc2ccccc2C(=O)O)c2nc(N3CCOCC3)cc(=O)n2c1` [AZD-6482], for which the % of control in experiment [1] worked out at 89%.

For `CC[C@@H]1[C@H](F)C(=O)N[C@@H]1COc1nccc2cc(C(N)=O)c(OC)cc12` [ZIMLOVISERTIB], the % of inhibition in experiment [2] was -4.9%; in experiment [3] it was 3.7%. The molecule `COc1cc(Nc2nc(C)cc(-c3cnn4nc(OC)ccc34)n2)cc(C(F)(F)F)c1` came in with a % of control in experiment [4] of 95%. `Cc1ccc(-c2ccc3c(ccc4sc5c(c43)NC[C@@H](C)NC5=O)n2)cn1`: in experiment [5], the % of inhibition was -11%.

Take `CCC(=O)N1CCN(c2ccc(-n3c(=O)ccc4cnc5ccc(-c6cnc7ccccc7c6)cc5c43)cc2C(F)(F)F)CC1`: the % of control in experiment [6] stood at 100%. `COc1cc(N(C)c2ccnc3ccc(C(F)(F)F)cc23)cc(OC)c1OC`: in experiment [7], the IC50 is over 10 µM.
